Experimental findings from ChEMBL document CHEMBL4622861, “Synthesis and biological evaluation of 6-nitro-1,2,4-triazoloazines containing polyphenol fragments possessing antioxidant and antiviral activity” (Bioorg Med Chem Lett, 2020) are described below.

The CC50 is the concentration that lowers cell viability or growth by half. For orientation: pIC50 means −log10 of the IC50, conventionally taken in molar units.

Data set [1] is described as follows: Cytotoxicity against MDCK cells. The settings on record: dog. It is filed as cell-based, Canis lupus familiaris.
The nature of data set [2]: Inhibition of M2 proton channel in Influenza A virus (A/Puerto Rico/8/34(H1N1)) infected in MDCK cells assessed as inhibition of viral infection. It is filed as cell-based, Influenza A virus (A/Puerto Rico/8/1934(H1N1)).
Data set [3] concerns M2 proton channel of Influenza A virus. Kind of data set: Selectivity index, ratio of CC50 for MDCK cells to IC50 for M2 proton channel in Influenza A virus (A/Puerto Rico/8/34(H1N1) ) infected in MDCK cells assessed as inhibition of viral infection. It is filed as toxicity, cell-based. The settings on record: dog, read-out: Ratio CC50/IC50.
The target of data set [4] is Hemagglutinin (Influenza A virus (A/Puerto Rico/8/1934(H1N1))) (UniProt P03452). Kind of data set: Inhibition of Hemagglutinin in Influenza A virus (A/Puerto Rico/8/34(H1N1)) assessed as reduction in virus-induced agglutination of chicken erythrocytes at 100 uM.
The test system of data set [5] is Influenza A virus. Put plainly: Antiviral activity against Influenza A virus (A/Puerto Rico/8/34(H1N1)) infected in MDCK cells assessed as reduction in viral titer at 50 uM measured after 4 hrs post-infection. The conditions noted are these: A/Puerto Rico/8/1934(H1N1). It is filed as functional, organism-based.
In data set [6] the test system is Influenza A virus. Put plainly: Antiviral activity against Influenza A virus (A/Puerto Rico/8/34(H1N1)) infected in MDCK cells assessed as reduction in viral titer at 100 uM measured at 0 to 2 hrs post-infection. The class given is functional, organism-based. The conditions noted are these: A/Puerto Rico/8/1934(H1N1).
For data set [7], the system named is Influenza A virus. Kind of data set: Antiviral activity against Influenza A virus (A/Puerto Rico/8/34(H1N1)) infected in MDCK cells assessed as reduction in viral titer at 100 uM measured at 0 to 8 hrs post-infection. It is filed as functional, organism-based. The conditions noted are these: A/Puerto Rico/8/1934(H1N1).
The nature of data set [8]: Antioxidant activity in K3[Fe(CN)6]/K4[Fe(CN)6] system by potentiometric method. The class given is functional.
For data set [9], the target named is Hemagglutinin (Influenza A virus (A/Puerto Rico/8/1934(H1N1))) (UniProt P03452). Kind of data set: Inhibition of Hemagglutinin in Influenza A virus (A/Puerto Rico/8/34(H1N1)) assessed as reduction in virus-induced agglutination of chicken erythrocytes at 50 uM.
The test system of data set [10] is Influenza A virus. Kind of data set: Antiviral activity against Influenza A virus (A/Puerto Rico/8/34(H1N1)) infected in MDCK cells assessed as reduction in viral titer at 50 uM measured at 0 to 2 hrs post-infection. The class given is functional, organism-based. The conditions noted are these: A/Puerto Rico/8/1934(H1N1).
The subject of data set [11] is Influenza A virus. Kind of data set: Antiviral activity against Influenza A virus (A/Puerto Rico/8/34(H1N1)) infected in MDCK cells assessed as reduction in viral titer at 50 uM measured at 0 to 8 hrs post-infection. The settings on record: A/Puerto Rico/8/1934(H1N1). It is filed as functional, organism-based.
Data set [12] relates to Influenza A virus. Put plainly: Antiviral activity against Influenza A virus (A/Puerto Rico/8/34(H1N1)) infected in MDCK cells assessed as reduction in viral titer at 100 uM measured after 4 hrs post-infection. The class given is functional, organism-based. The conditions noted are these: A/Puerto Rico/8/1934(H1N1).

The structures appear in SMILES notation. pIC50: −log10 of the molar value. The source made the active and inactive calls. The calls are words filed in the database; no cut-off is given here.

Sequence of Hemagglutinin (Influenza A virus (A/Puerto Rico/8/1934(H1N1))) (P03452 whole entry): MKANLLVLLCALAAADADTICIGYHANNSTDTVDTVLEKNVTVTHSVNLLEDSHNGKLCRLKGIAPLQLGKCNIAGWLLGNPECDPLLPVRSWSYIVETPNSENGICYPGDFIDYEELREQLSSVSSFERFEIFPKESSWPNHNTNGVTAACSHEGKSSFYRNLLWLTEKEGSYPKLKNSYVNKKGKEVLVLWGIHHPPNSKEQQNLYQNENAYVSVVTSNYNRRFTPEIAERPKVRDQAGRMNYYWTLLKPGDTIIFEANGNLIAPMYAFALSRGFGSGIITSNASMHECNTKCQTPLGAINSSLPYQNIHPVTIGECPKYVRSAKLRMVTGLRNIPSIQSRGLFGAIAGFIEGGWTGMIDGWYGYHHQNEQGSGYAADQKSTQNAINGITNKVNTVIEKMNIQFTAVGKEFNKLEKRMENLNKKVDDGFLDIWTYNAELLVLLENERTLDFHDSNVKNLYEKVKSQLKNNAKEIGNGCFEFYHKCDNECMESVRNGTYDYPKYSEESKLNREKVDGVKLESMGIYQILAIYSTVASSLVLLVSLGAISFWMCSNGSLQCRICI

`O=[N+]([O-])C1=NNc2ncnn2C1c1ccc(O)c(O)c1` (configuration not stated): the CC50 in data set [1] is > 1640 µM. Besides, the pIC50 in data set [2] is 2.96. Also, the selectivity ratio in data set [3] was determined as 2.

Regarding `O=[N+]([O-])C1=CNc2nc(-c3ccco3)nn2C1c1ccc(O)c(O)c1` (configuration not stated), the CC50 in data set [1] is > 1200 µM. For the same molecule, the pIC50 in [2] was 4.00. Besides, the selectivity ratio in data set [3] was > 12.

For the molecule `O=[N+]([O-])C1=NNc2nc(C(F)(F)F)nn2C1c1c(O)cc(O)cc1O` (configuration not stated), the midpoint of cytotoxicity in data set [1], the CC50, lay at 252 µM. Besides, the pIC50 in data set [2] is 4.57. For the same molecule, in [3], the selectivity ratio came out at 9.

Turning to `O=[N+]([O-])C1=CNc2nc(C(F)(F)F)nn2C1c1c(O)cc(O)cc1O` (configuration not stated), the CC50 in [1] is 838 µM. Moreover, the pIC50 in data set [2] was 4.57. Moreover, the selectivity ratio in [3] was 32.

Molecule `O=[N+]([O-])C1=CNc2ncnn2C1O` (configuration not stated) returned a CC50 in data set [1] of 123 µM. Moreover, the pIC50 in [2] is 4.55. Moreover, the selectivity ratio in data set [3] is 4.

In the case of `O=[N+]([O-])C1=CNc2nc(C(F)(F)F)nn2C1c1ccc(O)c(O)c1O` (configuration not stated), in data set [1], the CC50 came to 373 µM. The pIC50 in data set [2] was 4.33. Moreover, the selectivity ratio in data set [3] came out at 8.

As to `O=[N+]([O-])C1=NNc2ncnn2C1c1ccc(O)c(O)c1O` (configuration not stated), the half-maximal cytotoxic concentration (CC50) in data set [1] was 228 µM. Besides, the pIC50 in data set [2] is 4.07. Also, the selectivity ratio in [3] was 3.

The molecule `O=[N+]([O-])C1=NNc2ncnn2C1O` (configuration not stated) registered a CC50 in [1] of 87 µM. The pIC50 in data set [2] is < 4.44. For the same molecule, the selectivity ratio in data set [3] is 2.

Regarding `O=[N+]([O-])C1=CNc2nc(-c3ccco3)nn2C1c1ccc(O)cc1O` (configuration not stated), in [1], the CC50 came out at 119 µM. In addition, the pIC50 in data set [2] was 5.05. Besides, the selectivity ratio in [3] is 14.

As to `O=[N+]([O-])C1=NNc2ncnn2C1c1c(O)cc(O)cc1O` (configuration not stated), in data set [1], the CC50 came to 119 µM. In addition, the pIC50 in data set [2] is 4.59. Further, the selectivity ratio in [3] is 5.

In the case of `O=[N+]([O-])C1=CNc2ncnn2C1c1ccc(O)c(O)c1` (configuration not stated), the CC50 in data set [1] came to 368 µM. The pIC50 in [2] was 4.38. Further, in data set [3], the selectivity ratio is 9.

Take `O=[N+]([O-])C1=NNc2nc(C(F)(F)F)nn2C1c1ccc(O)c(O)c1` (configuration not stated): half-maximal cytotoxicity in data set [1] (CC50) was put at 183 µM. Also, the pIC50 in data set [2] is < 3.92. For the same molecule, in data set [3], the selectivity ratio stood at 2.

Consider `O=[N+]([O-])C1=CNc2ncnn2C1c1c(O)cc(O)cc1O` (configuration not stated), for which the inhibition entry in data set [4] was “Active”. The CC50 in data set [1] is > 1030 µM. Besides, the result in data set [5], in data set [6] and in data set [7] was Active. For the same molecule, the pIC50 in [2] is 4.70. Further, in data set [3], the selectivity ratio is > 51.

Turning to `O=[N+]([O-])C1=NNc2nc(C(F)(F)F)nn2C1c1ccc(O)c(O)c1O` (configuration not stated), the midpoint of cytotoxicity in data set [1], the CC50, lay at 67 µM. For the same molecule, the pIC50 in data set [2] is 5.00. Also, the selectivity ratio in data set [3] came out at 7.

For the molecule `CSc1nc2n(n1)C(c1ccc(O)c(O)c1O)C([N+](=O)[O-])=NN2` (configuration not stated), the CC50 in data set [1] was 196 µM. Further, the pIC50 in [2] was 4.59. Also, the selectivity ratio in data set [3] came out at 8. Further, the result in data set [8] was inactive.

On to `O=[N+]([O-])C1=NNc2nc(C(F)(F)F)nn2C1O` (configuration not stated), for which, in data set [1], the CC50 amounted to 40 µM. Also, in data set [2], the pIC50 is 4.96. In addition, the selectivity ratio in data set [3] was found to be 4.

In the case of `O=[N+]([O-])C1=CNc2nc(C(F)(F)F)nn2C1c1ccc(O)c(O)c1` (configuration not stated), half-maximal cytotoxicity in data set [1] (CC50) was put at 1200 µM. Further, the pIC50 in [2] is 4.68. In [3], the selectivity ratio was 57.

As to `O=[N+]([O-])C1=CNc2nc(-c3ccco3)nn2C1c1ccc(O)c(O)c1O` (configuration not stated), the 50% cytotoxic concentration (CC50) in data set [1] came to 317 µM. In addition, the pIC50 in [2] is 4.01. The selectivity ratio in [3] was found to be 3.

Regarding `CSc1nc2n(n1)C(O)C([N+](=O)[O-])=NN2` (configuration not stated), the CC50 in data set [1] is 99 µM. The pIC50 in data set [2] is 4.82. For the same molecule, in data set [3], the selectivity ratio stood at 7.

With `CC(N)C12CC3CC(CC(C3)C1)C2` (configuration not stated) [RIMANTADINE], the CC50 in data set [1] is > 200 µM. Also, the pIC50 in data set [2] is 6.52. For the same molecule, in [3], the selectivity ratio was > 667.

On to `CCC(CC)O[C@@H]1C=C(C(=O)O)C[C@H](N)[C@H]1NC(C)=O` [OSELTAMIVIR CARBOXYLATE], for which the midpoint of cytotoxicity in data set [1], the CC50, lay at 66 µM. Also, the pIC50 in [2] was 4.89. Besides, the selectivity ratio in [3] worked out at 5.

As for `CSc1nc2n(n1)C(c1c(O)cc(O)cc1O)C([N+](=O)[O-])=NN2` (configuration not stated), the half-maximal cytotoxic concentration (CC50) in data set [1] is 877 µM. The pIC50 in [2] is 4.64. In addition, the selectivity ratio in data set [3] came to 39.

For the molecule `O=[N+]([O-])C1=CNc2ncnn2C1c1ccc(O)c(O)c1O` (configuration not stated), half-maximal cytotoxicity in data set [1] (CC50) was put at 405 µM. Besides, in data set [2], the pIC50 is 3.23. Also, the selectivity ratio in data set [3] was 1.

For the molecule `CSc1nc2n(n1)C(c1ccc(O)cc1O)C([N+](=O)[O-])=NN2` (configuration not stated), in data set [1], it took 201 µM to reach half-maximal cytotoxicity (CC50). The negative logarithm of the IC50 (pIC50) in [2] was 4.74. For the same molecule, the selectivity ratio in data set [3] amounted to 11. Further, the result in data set [8] was inactive.

With `O=[N+]([O-])C1=CNc2ncnn2C1c1ccc(O)cc1O` (configuration not stated), the CC50 in data set [1] is > 1090 µM. The pIC50 in data set [2] is 3.78. Further, the selectivity ratio in data set [3] is > 7.

In the case of `CSc1nc2n(n1)C(c1ccc(O)c(O)c1)C([N+](=O)[O-])=NN2` (configuration not stated), the inhibition entry in data set [9] is “Active”. For the same molecule, it took 362 µM to reach half-maximal cytotoxicity in data set [1] (CC50). The result in data set [10], in data set [11] and in data set [12] was Active. Moreover, the pIC50 in data set [2] is 4.36. Further, the selectivity ratio in data set [3] is 8.

Molecule `O=[N+]([O-])C1=NNc2nc(C(F)(F)F)nn2C1c1ccc(O)cc1O` (configuration not stated) yielded a 50% cytotoxic concentration (CC50) in data set [1] of 108 µM. The pIC50 in data set [2] was 4.48. Also, the selectivity ratio in data set [3] was 3.

In turn, `O=[N+]([O-])C1=CNc2nc(-c3ccco3)nn2C1c1c(O)cc(O)cc1O` (configuration not stated) showed a CC50 in data set [1] of 280 µM. Besides, the pIC50 in [2] was 4.15. For the same molecule, the selectivity ratio in [3] was found to be 4.

For the molecule `O=[N+]([O-])C1=CNc2nc(-c3ccco3)nn2C1`, the CC50 in data set [1] came out at 108 µM. The pIC50 in data set [2] was 5.05. In addition, the selectivity ratio in data set [3] was 13.

In data set [1], `O=[N+]([O-])C1=CNc2nc(C(F)(F)F)nn2C1O` (configuration not stated) yielded a CC50 of 33 µM. For the same molecule, the negative-log IC50 (pIC50) in [2] is 4.96. In addition, the selectivity ratio in data set [3] was 3.

`O=[N+]([O-])C1=CNc2nc(C(F)(F)F)nn2C1c1ccc(O)cc1O` (configuration not stated) came in with a cytotoxic concentration (CC50) in [1] of 258 µM. Besides, the pIC50 in data set [2] is 5.22. Also, the selectivity ratio in [3] was 43.

For `O=[N+]([O-])C1=NNc2ncnn2C1c1ccc(O)cc1O` (configuration not stated), half-maximal cytotoxicity in data set [1] (CC50) was put at 90 µM. Moreover, in data set [2], the pIC50 is 4.47. In data set [3], the selectivity ratio came out at 3. Further, the result in data set [8] was inactive.
